In series [1] the test system is mixed cortical cell cultures containing neurons and glia. The series can be described thus: Fe2+-induced free radical neurotoxicity in mixed cortical cell cultures (LDH release). In kind it is cell-based, mouse. The following applies: for IC50: 50 μM FeCl2, neuronal death 24 hr later (LDH), read-out: IC50 (50% protection against Fe^2+-induced free radical neurotoxicity). On the procedure:
Mouse cortical cell cultures (DIV 11-15) were exposed to 50 μM Fe^2+ or 10 mM BSO, alone or with inclusion of 5 mM Li^+. Neuronal death was analyzed 24 hr later by measuring levels of LDH released into the bathing medium, mean±SEM (n=9-12 culture wells per condition).
Mouse cortical cell cultures (DIV 11-15) were exposed to 30 μM Fe^2+ or 10 mM BSO, alone or in the presence of 1 μM 2-hydroxy TTBA, 10-100 μM vitamin E, or 5 mM Li^+.
For mixed neuron-glia culture, mouse cerebral cortices were removed from brains of the 11-15 day-old-fetal mice (E11-15), gently triturated and plated on 24 well plates (2×10^5 cells/plate) precoated with 100 μg/ml poly-D-lysine and 4 pg/ml laminin. Cultures were maintained at 37° C. in a humidified 5% CO2 atmosphere.
After 7-8 days in vitro (DIV 7-8), 10 μM cytosine arabinofuranoside (Ara-C) was included to halt overgrowth of glia. The drug treatment was carried on DIV 11-15 cortical cell culture.
Oxidative stress was induced by exposing mixed cortical cell cultures containing neurons and glia (DIV 11-15) to 50 μM FeCl2, a hydroxyl radical-producing transition metal via a Fenton reaction, or 10 mM DL-buthionine-[S,R]-sulfoximine (BSO), a glutathione depleting agent.
For orientation: Release of lactate dehydrogenase indicates damage to the cell membrane.

Series [2] in a line: single-dose toxicity test. Conditions: mouse, in vivo. On the procedure: Single-dose toxicity test of compounds showing good results in the above three efficacy tests were evaluated.
In the next series the test system is beta-amyloid (Aβ42). As to the kind of experiment: suppression of beta-amyloid (Aβ42) production in CHO cells (ELISA). In kind it is cell-based, Chinese hamster. The following applies: Cricetulus griseus; CHO cells stably transfected with human wild APP695 and PS1ΔExon9; culture medium, ELISA; read-out: Aβ42 lowering effect (IC50). On the procedure: The suppressing effects of many drug candidates on production of beta-amyloid were evaluated in CHO cell line having the increased level of beta-amyloid. Results were shown as IC50 (uM) (Item C of Table 3 below).
In the Table 3, A, B and C mean neuron protecting effect against Fe^+2, suppressing effect on production of NO and suppressing effect on production of beta-amyloid, respectively. The term “ND” means “Not determined.”
Cells were treated with increasing concentrations of various chemicals in Chinese hamster ovary (CHO) cells stably transfected with human wild APP695 and the PS1ΔExon9, and analyzed Aβ42 levels in culture medium by colorimetric sandwich ELISA kit (BIOSOURCE, Camarillo, Calif.). In CHO cells, IC50 of Chemical—01-08 on Aβ42 lowering effect was 20-100 uM (Table 4).
On the technique in general: ELISA stands for enzyme-linked immunosorbent assay.

Series [3] has as its system neuron-rich cortical cell cultures. The series can be described thus: serum deprivation-induced neuronal cell apoptosis. Format: cell-based, mouse. Conditions: 24 hr; 5 mM Li^+, 100 μM zVADfmk, 1 μM 2-hydroxy TTBA. On the procedure: (B) Neuron-rich cortical cell cultures (DIV 7) were deprived of serum, alone or with addition of 100 μM zVADfmk, 1 μM 2-hydroxy TTBA, or 5 mM Li^+. Neuronal death was analyzed 24 hr later by counting viable neurons excluding trypan (mean±SEM, n=4). *, Significant difference from the relevant control (serum deprivation alone), p<0.05 using ANOVA and Student-Neuman-Keuls test. (C) Western blot analysis of FADD antibody following immunoprecipitation with Fas antibody in the same samples above.
Additional experiments were performed to examine if targeting both neuronal cell necrosis and apoptosis would result in synergic neuroprotection in […] transgenic mice. […] Neuronal cell apoptosis was induced by serum deprivation in neuron-rich cortical cell cultures as reported, which was prevented by addition of 5 mM Li^+ as well as zVADfmk, a broad spectrum inhibitor of caspases (FIG. 5B). […] Additional experiments were performed to examine if Li^+ would prevent Fas signaling pathway. […] This implies that 2-Hydroxy-TTBA and Li^+ blocks oxidative neuronal cell necrosis and apoptosis, respectively.

Series [4] relates to cortical cell cultures containing neurons and glia. The series can be described thus: cyclosporine A or calyculin A-induced neuronal cell apoptosis in cortical cell cultures. Format: cell-based, mouse. Conditions: 20 μM cyclosporine A, 24 hr, 100 μM Vitamin E, 1 μM 2-hydroxy-TTBA, 1 μM 2-hydroxy-TPEA. On the procedure: Mouse cortical cell cultures (DIV 10-12) were exposed to 20 μM cyclosporine A or 10 nM calculin A, alone or with inclusion of 0.3-30 mM Li. Neuronal death was analyzed 24-28 hr later by measuring levels of LDH released into the bathing medium, mean±SEM (n=9-12 culture wells per condition).
Mouse cortical cell cultures (DIV 10-12) were exposed to 20 μM cyclosporine A, alone or with 100 μM Vitamin E, 1 μM 2-hydroxy-TTBA, or 1 μM 2-hydroxy-TPEA. Neuronal death was analyzed 24 hr later by measuring levels of LDH released into the bathing medium, mean±SEM (n=9-12 culture wells per condition).
Cortical cell cultures containing neurons and glia at 10-12 days in vitro (DIV 10-12) were exposed to 20 μM cyclosporine A (CsA) or 10 nM caliculin A (cal A). Neurons underwent widespread apoptosis 24 hr later as previously reported (McDonald et al., 1996; Ko et al., 2000). […] This implies that Li^+ and the neuroprotective drugs (vitamin E, trolox, BAS, CBAS, FBAS, TBAS, PBAS, MBAS, NPAA, NPPAA, 2-Hydroxy-TTBA, and 2-Hydroxy-TPEA) selectively prevent neuronal cell apoptosis and free radical-mediated necrosis, respectively.

From patent US20120301551A1, “COMPOUNDS AND COMPOSITIONS FOR TREATING NEURONAL DEATH OR NEUROLOGICAL DYSFUNCTION” (Neurotech Pharmaceuticals Co., Ltd., priority 2005, published 2012) come the findings set out here.

Like-named read-outs stand apart in the source and are kept apart here. Residues, ends and D or L forms follow the SMILES beside them. *: point of attachment. Cbz = O=C(OCc1ccccc1)*; CH2F = FC*

As for `O=C(O)c1cc(NCc2ccc(Cl)cc2)ccc1O` [CBAS], in series [1], the IC50 (commonly the concentration at which inhibition is half-maximal) was found to be 200 nM. Take `O=C(O)c1cc(NCc2ccc(F)cc2)ccc1O` [FBAS]: the half-inhibitory concentration (IC50) in series [1] came out at 300 nM.

`COc1ccc(CNc2ccc(O)c(C(=O)O)c2)cc1` [MBAS, 5-(4-methoxybenzyl)aminosalicylic acid]: in series [1] (Mus musculus, Neuron), the IC50 was found to be 1420 nM. Turning to `O=C(O)c1cc(NCc2ccc([N+](=O)[O-])cc2)ccc1O` [NBAS, 5-(4-nitrobenzyl)aminosalicylic acid], the IC50 in series [1] (Mus musculus, Neuron) was 1900 nM.

In the case of `O=C(O)c1cc(NCCc2ccc([N+](=O)[O-])cc2)ccc1O` [NPAA, 5-[2-(4-nitrophenyl)-ethyl]aminosalicylic acid], in series [1] (Mus musculus, Neuron), the IC50 came to 270 nM. Still for that read-out and setting: the result for `O=C(O)c1cc(NCCCc2ccc([N+](=O)[O-])cc2)ccc1O` [NPPAA, 5-[3-(4-nitrophenyl)-n-propyl]aminosalicylic acid] reads 200 nM. Take `O=C(O)c1cc(NCc2c(F)c(F)c(F)c(F)c2F)ccc1O` [PBAS, 5-(pentafluoro-benzyl)aminosalicylic acid]: the IC50 in series [1] was 100 nM. On to `O=C(O)c1cc(NCc2ccc(C(F)(F)F)cc2)ccc1O` [TBAS], for which the half-inhibitory concentration (IC50) in series [1] is 310 nM. `Cc1c(C)c2c(c(C)c1O)CCC(C)(C(=O)O)O2` (stereo not shown) [Trolox, reference compound]: the IC50 in series [1] (Mus musculus, Neuron) worked out at 3340 nM. Consider `O=C(O)c1cc(NCCc2cccc(C(F)(F)F)c2)ccc1O` [chemical 04, 2-Hydroxy-5-[2-(3-trifluoromethyl-phenyl)-ethylamino]-benzoic acid], for which the “single-dose toxicity, result in words” value in series [2] is on record as “high toxicity or dose-independent toxicity”.

Regarding `O=C(O)c1cc(NCCc2cc(C(F)(F)F)cc(C(F)(F)F)c2)ccc1O` [chemical 27, 5-[2-(3,5-Bis-trifluoromethyl-phenyl)-ethylamino]-2-hydroxy-benzoic acid], in the series with beta-amyloid (Aβ42), the IC50 was found to be 109000 nM. In addition, the “single-dose toxicity, result in words” value in series [2] was “did not show dose-dependent result”.

In the case of `O=C(O)c1cc(NCCCc2ccc(C(F)(F)F)cc2)ccc1O` [chemical 42, 2-Hydroxy-5-[3-(4-trifluoromethyl-phenyl)-propylamino]-benzoic acid], the IC50 in the series on beta-amyloid (Aβ42) amounted to 68300 nM. In addition, in series [2], the “single-dose toxicity, result in words” value is reported as “high toxicity or dose-independent toxicity”.

Turning to `COC(=O)C[C@H](NC(=O)[C@H](C)NC(=O)[C@@H](NC(=O)OCc1ccccc1)C(C)C)C(=O)CF` [zVADfmk] (Cbz-Val-Ala-Asp(OMe)-CH2F), in series [3], the “serum deprivation-induced neuronal cell apoptosis, effect in words” value was “prevented”. As for Vitamin E [reference compound], the half-maximal inhibitory concentration (IC50) in series [1] came to 22000 nM. For the same compound, the “Fe^2+-induced free radical neurotoxicity, effect in words” value in series [1] (50 μM Fe^2+, 24 hr, 2-Hydroxy-TTBA or 2-Hydroxy-TPEA at doses as low as 0.3 μM, vitamin E at higher doses, Li^+ 10 mM (legend 5 mM)) was “prevented”. The figures for the “cyclosporine A-induced neuronal cell apoptosis, effect in words” value in series [4] and in series [4] (listed as vitamin E) were “do not attenuate” and “not attenuated”, respectively.
